In US20190142829A1, “AMELIORATION OF ANGELMAN'S SYNDROME DEFICIENCIES” (Neuralstem, Inc., priority 2017, published 2019):

Assays:
[1] = test system: mice with Angelman syndrome (AS); test: LTP assay on post-mortem hippocampal slices after in vivo dosing, AS mice; conditions: 30 mg/kg phosphate salt i.p. daily for 18 days, vs vehicle, p<0.05, FIG. 2
Method: (§1) Four groups (n=4/5 per group) of young adult mice (age ˜3 months) were administered 30mg/kg of the phosphate salt of NSI-189 i.p. daily for 13-15 days for behavior assays and for 18 days prior to termination followed by in vitro LTP assays or administered only vehicle. The groups included • (1) mice with Angelman syndrome (AS) treated with NSI-189, • (2) mice with Angelman syndrome (AS) treated with vehicle, • (3) wild-type littermates treated with NSI-189, and • (4) wild-type littermates treated with vehicle.

AS mice = test: Wire hang test (Hanging Wire test), AS mice; format: in vivo; conditions: phosphate i.p. over 21 days: D1-D7 3, D8-D14 10, D15-D21 30 mg/kg, maximum 120 sec, ultimately matched wild type, FIG. 3
Method: The wire hang test evaluates muscle strength as well as motor coordination. The set up includes a wire (0.2 cm in diameter×54.5 cm in length) stretched horizontally between two poles and elevated from a padded surface. The test starts when the mouse hangs onto the wire from its two forelimbs and lasts for 120 sec maximum. The time before falling, or the maximum score of 120 sec if no fall occurred, is recorded for each animal.
Four groups 5 mice for each group were used. Controls were administered vehicle and test groups were administered NSI-189 phosphate i.p. over 21 days as follows: D1-D7—3 mg/kg NSI-189 phosphate; D8-D14—10 mg/kg NSI-189 phosphate; D15-D21—30 mg/kg NSI-189 phosphate.
As shown, the AS mice administered only vehicle were not able to hang onto the wire for more than about 20 seconds, whereas AS mice treated with NSI-189 ultimately matched the times of wild type mice at about 100 seconds.

[2] = test system: hippocampal brain slices prepared from young adult Angelman mice; test: LTP in hippocampal brain slices treated in vitro, Angelman mice; format: cell-based; conditions: slices from Angelman mice (maternal Ube3A deletion); transient treatment for 3.5 hours; Liu et al, SfN Abstract 2016
Source text: Further, in a mouse model of Angelman syndrome, carrying the same maternal Ube3A deletion affected in human AS patients, the normal LTP is absent.

wild type mice = test: LTP assay on post-mortem hippocampal slices after in vivo dosing, wild type mice; conditions: 30 mg/kg phosphate salt i.p. daily for 18 days, FIG. 2
Method: as §1

[3] = test system: hippocampal slices from normal, healthy, young adult mice (field CA1); test: LTP elicited by theta burst stimulation in hippocampal slices treated in vitro, normal mice; format: cell-based; conditions: 100 nM to 10 μM for up to 3.5 h before theta burst stimulation, applicant's work, Liu et al, SfN Abstract 2016
Method: In work by applicant, hippocampal slices from normal, healthy, young adult mice were treated with various concentrations of NSI-189 (100 nM to 10 μM) for various times up to 3.5 h, before applying theta burst stimulation (TBS) to elicit long-term potentiation (LTP) in field CA1.

[4] = test system: mice with Angelman syndrome (AS); test: Fear-conditioning test, mouse model of Angelman syndrome; format: in vivo; conditions: 30 mg/kg phosphate salt i.p. daily, 2 weeks, vs vehicle, p<0.01, FIG. 1
Method: as §1
The behavior assay conducted was fear-conditioning test as diagnostic of hippocampal memory function.

**Q.** With CC(C)CCNc1ncccc1C(=O)N1CCN(Cc2ccccc2)CC1.O=P(O)(O)O [NSI-189] as the molecule, how does the “LTP in post-mortem hippocampal slices” value [1] read?
**A.** The value was “restoration of LTP”.

**Q.** And the “time before falling (hanging on the wire)” value (AS mice)?
**A.** Its value is “about 100 seconds”.

**Q.** And the “effect on LTP activity” value [2]?
**A.** Its value is “restore the LTP activity to normal level”.

**Q.** What about the “LTP in post-mortem hippocampal slices” value (wild type mice) of the same molecule?
**A.** The value was “improved”.

**Q.** And the “effect on long-term potentiation (LTP) in field CA1” value [3]?
**A.** The value was “statistically significant enhancement of the normal LTP level”.

**Q.** And the “freezing time following ring-tone (memory deficit)” value [4]?
**A.** The value was “memory deficit was diminished”.
